# In patent US20070259928A1, “Medicinal Composition for Treating Diabetes” (priority 2004, published 2007):
# Assays:
# Goto-Kakizaki (GK) rats = assay: Test Example 2: blood glucose lowering rate 4 hours after oral Compound A in fasted and non-fasted rats; assay type: in vivo, rat; details: 30 mg/kg oral
# Protocol: Thirty-six-week old Goto-Kakizaki (GK) rats (purchased from Charles River Japan, Inc.), that spontaneously developed diabetes mellitus, were grouped into 4 groups such as “non-fasting control group”, “non-fasting and Compound A administered group”, “fasting control group”, and “fasting and Compound A administered group” (6 rats per group).
# In Compound A administered groups, Compound A (30 mg/kg) was orally administered, and vehicle alone was administered to two control groups. In addition, rats in two fasting groups were fasted from one day before oral administration of Compound A, and rats in two non-fasting groups were fasted immediately after Compound A was administered [the rats were allowed to take food pellets (FR2, manufactured by Funabashi Farm Co., Ltd.) ad libitum until fasting was started]. Blood sample was collected from the tail vein immediately before and 4 hours after oral administration of Compound A. Blood glucose level was determined by electric potential measurement method based on glucose oxidase immobilized electrode using Glucoloader GXT (A&T Corp.). The blood glucose lowering rate (%) at 4 hours after administration of Compound A against the blood glucose level before administration was calculated in individual rats according to the following equation, and the average blood glucose lowering rate and its standard error in each group are summarized in FIG. 2. [Blood glucose lowering rate(%)]=100×([…])/[blood glucose level before administration]
# [1] = system: Zucker diabetic fatty (ZDF) rats; assay: Test Example 1: glycosylated hemoglobin ratio after 6 weeks of repeated, timed administration of Compound A and metformin; assay type: in vivo, rat; details: for glycosylated hemoglobin ratio vs control group: 100-150 mg/kg each once daily
# Protocol: Eleven-week old Zucker diabetic fatty (ZDF) rats, that spontaneously developed diabetes mellitus, were grouped into 3 groups (7 rats per group). Feeding was limited to from 17:00 to 9:00, and Compound A and metformin (purchased from Sigma Chemical Co., Ltd.) were repeatedly administered for 6 weeks. Doses of Compound A and metformin were 100-150 mg/kg each once daily, and administered at 9:00 AM (9:00) or 4:00 PM (16:00). In the group administered Compound A at 9:00 AM, metformin was administered at 4:00 PM (AM-Compound A/PM-metformin administered group; Group A), and in the group administered metformin at 9:00 AM, Compound-A was administered at 4:00 PM (AM-metformin/PM-Compound A administered group; Group B). The dose of each compound per day in both groups was fixed at the same. Vehicle alone was administered to the remaining group (control group) twice a day. After repeated administration of the compounds for 6 weeks, blood sample was collected from the tail vein of each rat, and ratios of glycosylated hemoglobin levels in erythrocytes were determined by DCA2000 manufactured by Bayer Medical Ltd. Glycosylated hemoglobin is non-enzymatically formed by binding of glucose to hemoglobin, and the ratio of glycosylated hemoglobin is increased by sustained hyperglycemia. Thus the glycosylated hemoglobin ratio is widely used as an indicator of a long-term therapy (or control of blood glucose levels) in patients with diabetes mellitus. The average and standard error of the glycosylated hemoglobin ratio determined in each group were calculated and are shown in FIG. 1.
smiles,measurement,setting,value
"CCOC(=O)[C@H](C)NP(=O)(N[C@@H](C)C(=O)OCC)c1ccc(-c2nc(N)sc2CC(C)C)o1 [Compound A, 2-amino-5-isobutyl-4-{2-[5-(N,N′-bis((S)-1-ethoxycarbonyl)ethyl)phosphonamido]furanyl}thiazole]",blood glucose lowering rate at 4 hours after administration vs corresponding control group,"Goto-Kakizaki (GK) rats; GK rats fasted from one day before dosing, p=0.0236, t-test",significantly reduced
same,"blood glucose lowering rate at 4 hours, fasting group vs non-fasting group","Goto-Kakizaki (GK) rats; GK rats, both groups given Compound A, p=0.0158, t-test",significantly lower
same,blood glucose lowering rate at 4 hours after administration vs corresponding control group,"Goto-Kakizaki (GK) rats; non-fasting GK rats, p=0.0196, t-test",significantly reduced
same,"glycosylated hemoglobin ratio, Group B vs Group A","[1]; AM-metformin/PM-Compound A compared with AM-Compound A/PM-metformin, same daily doses, p=0.0330, Tukey test",improved diabetes mellitus more remarkably
same,glycosylated hemoglobin ratio vs control group,"[1]; Group A: Compound A at 9:00 AM, metformin at 4:00 PM, p=0.0749, Tukey test",not significantly different from that in the control group
same,glycosylated hemoglobin ratio vs control group,"[1]; Group B: metformin at 9:00 AM, Compound A at 4:00 PM, p=0.0002, Tukey test",significantly lower than that in the control group
